Source: patent US6352976B1, “Selective inhibitors of MMP-12” (Aventis Pharmaceuticals Inc., priority 1998, dated 2002)

Target: T1, MMP-12 (macrophage metalloelastase) (Homo sapiens, UniProt P39900)
T1 construct: made in house
Experiment: Determination of the inhibition constant (Ki) for MMP-12, fluorogenic substrate
Assay type: biochemical
Settings: compared to their N-methylamide derivatives (Examples 6 and 7); from Ki values of Table 2
Procedure: MMP-12 (EC3.4.24.65) was cloned, expressed and purified according to Shapiro, S. D. et al., J Biol. Chem. 268, 23824-23829 (1993). […] Aliquots of MMP-12 were stored at −70° C.
The potency of inhibitors of MMP-12 was measured using either quartz cuvettes or microtiter plates. The activity of MMP-12 was measured using a fluorogenic substrate, Mca-Pro-Leu-Gly-Leu-Dpa-Ala-Arg-NH2 SEQ ID NO1, Knight, C. G. et al., FEBS Lett. 296,263-266 (1992), at 25° C. in an assay buffer containing 50 mM Tris, pH 7.6, 0.2 M sodium chloride, 50 mM calcium chloride, and 0.02% Brij-35. The increase in fluorescence due to cleavage of Gly-Leu peptide bond by MMP-12 was monitored with a Perkin-Elmer LS50B Fluorimeter (λex 328 nm, λem 393 nm, excitation slit 2.5, emission slit 10) for the cuvette assay and with a Molecular Devices Fmax fluorescence plate reader (λex 320 nm, λem 405 nm) for the microtiter plate assay. Substrate and inhibitor stock solutions were made in N,N-dimethylformamide (DMF) and 0.1% HCl-DMF, respectively.
Ki values were determined using the cuvette method by preparing a series of intermediate inhibitors solutions in 0.1% HCl-DMF and mixing the inhibitor with substrate (final concentration 2 μM) in a quartz cuvette containing 2 ml of assay buffer. MMP-12 was added to start the reaction at a concentration of 2 nM and progress curves were generated. For routine measurement of a Ki value for a reversible competitive inhibitor, the initial rates in the presence of at least four inhibitor concentrations (two concentrations above and two concentrations below the Ki) were measured [S]=2 μM (<<Km) and [MMP-12]=2 nM. Under these conditions, the measured Ki,app is close to the true Ki.
Ki values were determined using the microtiter plate method in a manner similar to that described for the cuvette method with some modifications. Four different inhibitor concentrations (50 μl in assay buffer) of each compound were added to separate wells of a microtiter plate and substrate was added (100 μl) to get a final concentration of […]. MMP-12 was added to a final concentration of 2 nM (50 μl) to start the reaction. Cleavage of substrate was recorded every 30 seconds for 30 minutes and progress curves were generated.
The Ki for a competitive inhibitor was calculated using: V0/Vi=(1+[I]/Ki,app) and Ki=Ki,app/(1+[S]/Km), where V0 is the initial rate in the absence of inhibitor, Vi is the initial rate in the presence of inhibitor at the concentration of [I], [S] is the substrate concentration, and Km is the Michaelis constant. If slow binding is observed (i.e. if the approach to the binding equilibrium is slow), the final steady-state rate rather than the initial rate is taken as Vi.

T1 sequence (P39900 106-263 limits assumed): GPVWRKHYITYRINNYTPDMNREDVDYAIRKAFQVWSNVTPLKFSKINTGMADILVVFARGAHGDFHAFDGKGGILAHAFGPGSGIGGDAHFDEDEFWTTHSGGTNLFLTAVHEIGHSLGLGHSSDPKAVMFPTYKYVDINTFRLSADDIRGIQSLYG

CCCC(S)C(=O)N[C@@H](CCc1ccccc1)C(=O)N[C@@H](Cc1ccccc1)C(=O)O (some centres unmarked) [Example 1, 2-Mercapto-pentanoyl-(L)-homo-phenylalanyl-(L)-phenylalanine]
selectivity for MMP-12 over MMP-1, MMP-2, and MMP-3: selective for MMP-12 over MMP-1, MMP-2, and MMP-3

CC(C)[C@H](S)C(=O)N[C@@H](CCc1ccccc1)C(=O)N[C@@H](Cc1ccccc1)C(=O)O [Example 2, (S)-2-Mercapto-3-methylbutyroyl-(L)-homo-phenylalanyl-(L)-phenylalanine]
selectivity for MMP-12 over MMP-1, MMP-2, and MMP-3: selective for MMP-12 over MMP-1, MMP-2, and MMP-3
